Reference: patent US20210269434A1, “TRICYCLIC COMPOUNDS AS INHIBITORS OF KRAS” (Incyte Corporation, priority 2020, published 2021)

Legend:
KRAS G12C = KRAS G12C (Homo sapiens, UniProt P01116, G12C); test: GDP-GTP exchange assay (KRAS_G12C exchange); assay type: biochemical; conditions: bodipy-GDP loaded KRAS G12C 2.5 nM, SOS1 150 nM, GppNHp; 2 hours pre-incubation, 2 hours reaction; read-out: G12C_exchange
Method in brief: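 Fluorescence exchange of bodipy-GDP for GppNHp, SOS1-driven, read at 485/520 nm; IC50 from four-parameter variable-slope fit. Both mutants used 2.5 nM final labelled protein and a 2 h compound pre-incubation. G12C reaction had 500 uM GppNHp and 150 nM SOS1 for 2 h; G12D ran 4 h.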

[1] = tested on: MIA PaCa-2 (KRAS G12C) cells; test: Cellular pERK HTRF assay (KRAS_G12C pERK); assay type: cell-based, human; conditions: Homo sapiens, MIA PaCa-2, 4 hours incubation, read-out: G12C_pERK
Method in brief: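 MIA PaCa-2 cells plated overnight, then exposed to compound for 4 h at 37 °C (G12C compounds). Phospho-ERK1/2 measured in lysates by HTRF (665/620 nm) after overnight antibody incubation; IC50 from percent inhibition versus log concentration.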

KRAS G12C, sequence (P01116 1-188 isoform P01116-2 G12C): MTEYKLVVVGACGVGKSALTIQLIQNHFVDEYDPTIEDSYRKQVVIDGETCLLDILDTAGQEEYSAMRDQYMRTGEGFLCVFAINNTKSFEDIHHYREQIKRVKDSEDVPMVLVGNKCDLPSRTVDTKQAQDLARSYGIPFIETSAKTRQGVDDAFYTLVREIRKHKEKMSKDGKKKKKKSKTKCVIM

| SMILES | IC50 (KRAS G12C) | IC50 [1] |
| --- | --- | --- |
| C=CC(=O)N1CC(n2c(=O)[nH]c3c(=O)n(-c4c(C)ccnc4C(C)C)c4nc(-c5cc(O)cc6ccccc56)c(F)cc4c32)C1 [Example 26, 1-(1-acryloylazetidin-3-yl)-8-fluoro-7-(3-hydroxynaphthalen-1-yl)-5-(2-isopropyl-4-methylpyridin-3-yl)-3,5-dihydro-1H-imidazo[4,5-c][1,8]naphthyridine-2,4-dione] | ≤ 100 nM | 1000 to 5000 nM |
| C=CC(=O)N1CC(n2c(=O)n(C[C@@H]3CCCN3C)c3c(=O)n(-c4c(C)ccnc4C(C)C)c4nc(-c5cc(O)cc6ccccc56)c(F)cc4c32)C1 [Example 27, (S)-1-(1-acryloylazetidin-3-yl)-8-fluoro-7-(3-hydroxynaphthalen-1-yl)-5-(2-isopropyl-4-methylpyridin-3-yl)-3-((1-methylpyrrolidin-2-yl)methyl)-3,5-dihydro-1H-imidazo[4,5-c][1,8]naphthyridine-2,4-dione] | 100 to 1000 nM | 1000 to 5000 nM |
| C=CC(=O)N1C[C@H](n2cnc3c(N4CC(N(C)C)C4)nc4c(F)c(-c5cc(O)cc6ccccc56)c(Cl)cc4c32)C[C@@H]1CC#N [Example 32, 2-((2R,4R)-1-acryloyl-4-(8-chloro-4-(3-(dimethylamino)azetidin-1-yl)-6-fluoro-7-(3-hydroxynaphthalen-1-yl)-1H-imidazo[4,5-c]quinolin-1-yl)pyrrolidin-2-yl)acetonitrile] | ≤ 100 nM | ≤ 100 nM |
| C=CC(=O)N1CC[C@H](n2cnc3c(N4CC(N(C)C)C4)nc4c(F)c(-c5ccccc5)c(Cl)cc4c32)C[C@H]1CC#N [Example 45, 2-((2S,4S)-1-acryloyl-4-(8-chloro-4-(3-(dimethylamino)azetidin-1-yl)-6-fluoro-7-phenyl-1H-imidazo[4,5-c]quinolin-1-yl)piperidin-2-yl)acetonitrile] | ≤ 100 nM | ≤ 100 nM |
| C=CC(=O)N1CC[C@H](n2cnc3c(N4CC(N(C)C)C4)nc4c(F)c(-c5cccc6ccccc56)c(Cl)cc4c32)C[C@H]1CC#N [Example 46, 2-((2S,4S)-1-acryloyl-4-(8-chloro-4-(3-(dimethylamino)azetidin-1-yl)-6-fluoro-7-(naphthalen-1-yl)-1H-imidazo[4,5-c]quinolin-1-yl)piperidin-2-yl)acetonitrile] | ≤ 100 nM | ≤ 100 nM |
| C=CC(=O)N1CC[C@H](n2cnc3c(N4CC(N(C)C)C4)nc4c(F)c(-c5cc(O)ccc5F)c(Cl)cc4c32)C[C@H]1CC#N [Example 55, 2-((2S,4S)-1-acryloyl-4-(8-chloro-4-(3-(dimethylamino)azetidin-1-yl)-6-fluoro-7-(2-fluoro-5-hydroxyphenyl)-1H-imidazo[4,5-c]quinolin-1-yl)piperidin-2-yl)acetonitrile] | ≤ 100 nM | ≤ 100 nM |
| C=CC(=O)N1CC[C@H](n2cnc3c(N4CC(N(C)C)C4)nc4c(F)c(-c5ccccc5F)c(Cl)cc4c32)C[C@H]1CC#N [Example 56, 2-((2S,4S)-1-acryloyl-4-(8-chloro-4-(3-(dimethylamino)azetidin-1-yl)-6-fluoro-7-(2-fluorophenyl)-1H-imidazo[4,5-c]quinolin-1-yl)piperidin-2-yl)acetonitrile] | ≤ 100 nM | ≤ 100 nM |
| C=CC(=O)N1CC[C@H](n2cnc3c(N4CC(N(C)C)C4)nc4c(F)c(-c5ccccc5Cl)c(Cl)cc4c32)C[C@H]1CC#N [Example 57, 2-((2S,4S)-1-acryloyl-4-(8-chloro-7-(2-chlorophenyl)-4-(3-(dimethylamino)-azetidin-1-yl)-6-fluoro-1H-imidazo[4,5-c]quinolin-1-yl)piperidin-2-yl)acetonitrile] | ≤ 100 nM | ≤ 100 nM |
| C=CC(=O)N1CC[C@H](n2cnc3c(N4CC(N(C)C)C4)nc4c(F)c(-c5cccc(F)c5Cl)c(Cl)cc4c32)C[C@H]1CC#N [Example 58, 2-((2S,4S)-1-acryloyl-4-(8-chloro-7-(2-chloro-3-fluorophenyl)-4-(3-(dimethyl-amino)azetidin-1-yl)-6-fluoro-1H-imidazo[4,5-c]quinolin-1-yl)piperidin-2-yl)acetonitrile] | ≤ 100 nM | ≤ 100 nM |
